Experimental data published in ChEMBL document CHEMBL5223073, “Andrographolide suppresses cisplatin-induced endothelial hyperpermeability through activation of PI3K/Akt and eNOS -derived nitric oxide” (Bioorg Med Chem, 2020).
Active and inactive are the calls of the source. No cut-off for these calls is given here.

Assays:
[1] = biological target: T1, Nitric oxide synthase 3 (Homo sapiens) (UniProt P29474); assay: Activation of eNOS activity in cisplatin-treated HUVEC cells assessed as increase in eNOS phosphorylation at Ser1177 residue at 30 uM preincubated with eNOS inhibitor, N(G)-nitro-L-arginine methyl ester followed by compound addition measured after 5 to 240 mins by Western blot analysis; type: cell-based; settings: time 5-240 min
T1 sequence (whole entry): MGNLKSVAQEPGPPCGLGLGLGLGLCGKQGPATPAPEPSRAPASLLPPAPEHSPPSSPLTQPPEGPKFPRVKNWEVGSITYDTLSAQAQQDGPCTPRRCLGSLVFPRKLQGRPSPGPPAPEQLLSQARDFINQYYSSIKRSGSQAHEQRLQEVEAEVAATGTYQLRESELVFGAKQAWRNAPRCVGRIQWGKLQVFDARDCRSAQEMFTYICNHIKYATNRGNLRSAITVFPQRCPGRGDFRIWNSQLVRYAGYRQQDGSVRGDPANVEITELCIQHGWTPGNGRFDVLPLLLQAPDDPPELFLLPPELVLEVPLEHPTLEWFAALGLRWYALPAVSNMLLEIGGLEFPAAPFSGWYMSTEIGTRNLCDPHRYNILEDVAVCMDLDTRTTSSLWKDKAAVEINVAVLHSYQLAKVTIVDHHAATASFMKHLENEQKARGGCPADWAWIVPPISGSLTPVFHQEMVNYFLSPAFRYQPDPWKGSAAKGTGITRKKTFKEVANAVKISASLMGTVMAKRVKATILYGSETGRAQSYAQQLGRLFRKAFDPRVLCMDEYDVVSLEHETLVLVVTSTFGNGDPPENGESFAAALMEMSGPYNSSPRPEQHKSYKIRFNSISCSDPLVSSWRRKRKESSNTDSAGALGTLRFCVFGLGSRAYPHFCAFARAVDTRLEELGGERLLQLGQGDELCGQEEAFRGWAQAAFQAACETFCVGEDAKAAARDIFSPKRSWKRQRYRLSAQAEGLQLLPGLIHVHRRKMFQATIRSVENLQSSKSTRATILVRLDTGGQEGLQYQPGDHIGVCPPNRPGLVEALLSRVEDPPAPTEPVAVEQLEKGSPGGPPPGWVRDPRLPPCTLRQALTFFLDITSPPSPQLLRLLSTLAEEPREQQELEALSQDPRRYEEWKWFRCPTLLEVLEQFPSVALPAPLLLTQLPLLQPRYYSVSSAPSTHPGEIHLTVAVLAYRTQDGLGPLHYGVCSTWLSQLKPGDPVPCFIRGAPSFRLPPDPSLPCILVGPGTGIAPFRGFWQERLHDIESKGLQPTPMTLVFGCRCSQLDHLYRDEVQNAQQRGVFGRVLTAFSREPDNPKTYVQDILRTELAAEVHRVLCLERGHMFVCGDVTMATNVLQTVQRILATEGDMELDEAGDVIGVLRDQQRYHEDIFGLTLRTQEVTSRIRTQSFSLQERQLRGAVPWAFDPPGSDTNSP

HUVEC [2] = assay: Inhibition of cisplatin-induced TRPC1 phosphorylation in [32P] orthophosphate labeled HUVEC cells at 30 uM incubated for 15 mins in presence of cisplatin and eNOS inhibitor, N(G)-nitro-L-arginine methyl ester by Western blot analysis; type: cell-based; settings: Homo sapiens
[3] = biological target: Transcription factor p65 (Homo sapiens) (UniProt Q04206); assay: Inhibition of cisplatin-induced phosphorylation of p65 subunit at Ser536 residue in HUVEC cells at 30 uM preincubated with eNOS inhibitor, N(G)-nitro-L-arginine methyl ester followed by compound addition and further incubated for 1 hr by Western blot analysis; type: cell-based
HUVEC [4] = assay: Activation of PI3K in cisplatin-treated HUVEC cells assessed as increase PIP3 formation at 30 uM pretreated for 30 mins in presence of PI3K inhibitor, wortmannin followed by cisplatin addition by immunoprecipitation analysis; type: cell-based; settings: Homo sapiens
HUVEC [5] = assay: Induction of NO production in cisplatin-treated HUVEC cells assessed as increase in fluorescence signal at 30 uM preincubated with PI3K inhibitor, wortmannin for 3 hrs followed by compound addition and measured immediately by DAF-FM dye based analysis; type: functional, cell-based; settings: Homo sapiens
HUVEC [6] = assay: Activation of AKT in cisplatin-treated HUVEC cells assessed as increase in AKT phosphorylation at 30 uM pretreated with PI3K inhibitor, wortmannin followed by compound addition and measured after 240 mins by Western blot analysis; type: cell-based; settings: Homo sapiens
U-937 = assay: Inhibition of cisplatin-induced ICAM1 dependent HUVEC cells adhesion to human U-937 cells at 10 to 30 uM preincubated with HUVEC cells for 4.5 hrs in presence of cisplatin and PI3K inhibitor, wortmannin followed by U-937 cell suspension addition and measured after 1 hr by BCECF fluorescent probe based assay; type: functional; settings: dose 10-30 µM, time 5.5 hrs
HUVEC [7] = assay: Downregulation of cisplatin-induced ICAM1 protein expression in HUVEC cells at 100 uM incubated for 1 hr by Western blot analysis; type: functional, cell-based; settings: Homo sapiens
HUVEC [8] = assay: Improvement in cisplatin-induced endothelial monolayer integrity in HUVEC cells assessed as reduction in transmembrane movement of albumin at 30 uM preincubated with compound in presence of PI3K inhibitor, wortmannin followed by cisplatin stimulation and measured after 2 hrs; type: functional, cell-based; settings: Homo sapiens
[9] = biological target: Transcription factor p65 (Homo sapiens) (UniProt Q04206); assay: Inhibition of cisplatin-induced phosphorylation of p65 subunit at Ser536 residue in HUVEC cells at 30 uM preincubated with PI3K inhibitor, wortmannin followed by compound addition and further incubated for 1 hr by Western blot analysis; type: cell-based
HUVEC [10] = assay: Inhibition of cisplatin-induced store operated Ca2+ release in HUVEC cells at 30 uM preincubated with compound in presence of eNOS inhibitor, N(G)-nitro-L-arginine methyl ester followed by cisplatin stimulation by Fura-2 AM staining based calcium influx assay; type: functional, cell-based; settings: Homo sapiens
HUVEC [11] = assay: Cytotoxicity against HUVEC cells assessed as reduction in cell viability at <=30 uM measured after 24 hrs by MTT assay; type: toxicity, cell-based; settings: human
HUVEC [12] = assay: Improvement in cisplatin-induced endothelial monolayer integrity in HUVEC cells assessed as reduction in transmembrane movement of albumin at 30 uM preincubated with compound followed by cisplatin stimulation and measured after 2 hrs; type: functional, cell-based; settings: Homo sapiens
HUVEC [13] = assay: Improvement in cisplatin-induced endothelial monolayer integrity in HUVEC cells assessed as increase in transendothelial electric resistance at 30 uM preincubated with compound in presence of eNOS inhibitor, N(G)-nitro-L-arginine methyl ester followed by cisplatin stimulation and measured after 45 mins; type: functional, cell-based; settings: Homo sapiens
HUVEC [14] = assay: Inhibition of cisplatin-induced PKCalpha translocation in HUVEC cells assessed as increase in PKCalpha accumulation in cytosol at 30 uM incubated for 15 mins in presence of cisplatin by Western blot analysis; type: functional, subcellular; settings: Homo sapiens
HUVEC [15] = assay: Activation of PI3K in cisplatin-treated HUVEC cells assessed as increase PIP3 formation pretreated for 30 mins followed by cisplatin addition by immunoprecipitation analysis; type: cell-based; settings: Homo sapiens, filed as activator, dose 10-30 µM
HUVEC [16] = assay: Downregulation of cisplatin-induced ICAM1 protein expression in HUVEC cells at 30 uM preincubated with PI3K inhibitor, wortmannin followed by compound addition and further incubated for 1 hr by Western blot analysis; type: functional, cell-based; settings: Homo sapiens
HUVEC [17] = assay: Downregulation of cisplatin-induced ICAM1 protein expression in HUVEC cells at 30 uM preincubated with eNOS inhibitor, N(G)-nitro-L-arginine methyl ester followed by compound addition and further incubated for 1 hr by Western blot analysis; type: functional, cell-based; settings: Homo sapiens

Sequence of Transcription factor p65 (Homo sapiens) (Q04206 whole entry): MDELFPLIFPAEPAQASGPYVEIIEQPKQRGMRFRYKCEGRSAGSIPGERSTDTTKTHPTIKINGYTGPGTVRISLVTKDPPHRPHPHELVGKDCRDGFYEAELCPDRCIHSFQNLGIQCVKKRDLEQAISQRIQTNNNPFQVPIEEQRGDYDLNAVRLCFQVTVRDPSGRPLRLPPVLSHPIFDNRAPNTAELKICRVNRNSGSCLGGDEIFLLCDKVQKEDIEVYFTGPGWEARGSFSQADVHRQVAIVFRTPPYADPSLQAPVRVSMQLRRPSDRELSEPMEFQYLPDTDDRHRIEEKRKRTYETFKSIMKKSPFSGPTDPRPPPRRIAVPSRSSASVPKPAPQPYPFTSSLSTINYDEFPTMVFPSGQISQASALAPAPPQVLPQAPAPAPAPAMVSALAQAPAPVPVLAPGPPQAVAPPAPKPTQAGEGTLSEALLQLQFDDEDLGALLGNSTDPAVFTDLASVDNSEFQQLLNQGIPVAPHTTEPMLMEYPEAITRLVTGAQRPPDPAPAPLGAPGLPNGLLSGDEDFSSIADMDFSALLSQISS

Activity [1]: inactive | inhibition [3]: inactive | inhibition [9]: inactive
Compound: C=C1CC[C@@H]2[C@](C)(CO)[C@H](O)CC[C@@]2(C)[C@@H]1C/C=C1/C(=O)OC[C@H]1O [ANDROGRAPHOLIDE]
inhibition (HUVEC [2]): inactive | Activity (HUVEC [4]): inactive | Activity (HUVEC [5]): inactive | Activity (HUVEC [6]): inactive | inhibition (U-937): inactive | Activity (HUVEC [7]): Active | Activity (HUVEC [8]): inactive | inhibition (HUVEC [10]): inactive | Activity (HUVEC [11]): Non-Toxic | Activity (HUVEC [12]): Active | Activity (HUVEC [13]): inactive | inhibition (HUVEC [14]): Active | Activity (HUVEC [15]): Dose-Dependent Effect | Activity (HUVEC [16]): inactive | Activity (HUVEC [17]): inactive
